From ChEMBL document CHEMBL5154845, “Dual-acting antitumor agents targeting the A2A adenosine receptor and histone deacetylases: Design and synthesis of 4-(furan-2-yl)-1H-pyrazolo[3,4-d]pyrimidin-6-amine derivatives” (Eur J Med Chem, 2022)
Calls of active or inactive are those of the source. The calls are words filed in the database; no cut-off is given here.

Columns and labels:
[1] = target: Adenosine receptor A2a (Homo sapiens, UniProt P29274); assay: Displacement of [3H][…] from human A2AAR incubated for 60 mins by scintillation counter analysis
[2] = target: Histone deacetylase 1 (Homo sapiens, UniProt Q13547); assay: Inhibition of HDAC1 (unknown origin) using trypsin and LGK(Ac)-AMC as substrates incubated for 1 hr and measured by fluorescence assay
[3] = test system: MC-38; assay: Antiproliferative activity against mouse MC38 cells after 72 hrs by CCK-8 assay; type: functional
[4] = test system: CT26; assay: Antiproliferative activity against mouse CT26 cells after 72 hrs by CCK-8 assay; type: functional
[5] = test system: MC38; assay: Inhibition of HDAC in mouse MC38 cells assessed as increase in H3 acetylation at 0.1 to 10 uM measured by western blot analysis; type: cell-based; settings: dose 0.1-10 µM
[6] = test system: MC38; assay: Inhibition of HDAC in mouse MC38 cells assessed as increase in H4 acetylation at 0.1 to 10 uM measured by western blot analysis; type: cell-based; settings: dose 0.1-10 µM
[7] = target: T1, Adenosine receptor A1 (Homo sapiens, UniProt P30542); assay: Displacement of [3H]DPCPX from human A1AR incubated for 60 mins by scintillation counter analysis
T1 sequence (P30542 whole entry): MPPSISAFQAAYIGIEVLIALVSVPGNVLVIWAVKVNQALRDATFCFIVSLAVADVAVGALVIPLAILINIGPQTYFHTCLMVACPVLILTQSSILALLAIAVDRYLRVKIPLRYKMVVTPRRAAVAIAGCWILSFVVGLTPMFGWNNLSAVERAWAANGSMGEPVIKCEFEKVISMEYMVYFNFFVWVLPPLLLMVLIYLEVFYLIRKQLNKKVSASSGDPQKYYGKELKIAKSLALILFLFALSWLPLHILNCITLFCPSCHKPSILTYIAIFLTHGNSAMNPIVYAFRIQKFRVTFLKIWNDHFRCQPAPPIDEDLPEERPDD

[8] = target: T2, Adenosine receptor A2b (Homo sapiens, UniProt P29275); assay: Displacement of [3H]DPCPX from human A2BAR incubated for 60 mins by scintillation counter analysis
T2 sequence (P29275 whole entry): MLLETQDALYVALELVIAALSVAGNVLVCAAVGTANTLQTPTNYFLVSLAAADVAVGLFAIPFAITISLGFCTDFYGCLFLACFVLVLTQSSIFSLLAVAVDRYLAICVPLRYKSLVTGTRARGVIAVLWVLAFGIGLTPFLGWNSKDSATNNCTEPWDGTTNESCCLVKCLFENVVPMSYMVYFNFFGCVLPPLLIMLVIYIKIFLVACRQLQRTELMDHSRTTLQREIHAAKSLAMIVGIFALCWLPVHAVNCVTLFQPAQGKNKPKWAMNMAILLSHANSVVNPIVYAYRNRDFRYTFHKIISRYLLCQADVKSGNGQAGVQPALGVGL

[9] = target: T3, Adenosine receptor A3 (Homo sapiens, UniProt P0DMS8); assay: Displacement of [3H]HEMADO from human A3AR incubated for 60 mins by scintillation counter analysis
T3 sequence (P0DMS8 whole entry): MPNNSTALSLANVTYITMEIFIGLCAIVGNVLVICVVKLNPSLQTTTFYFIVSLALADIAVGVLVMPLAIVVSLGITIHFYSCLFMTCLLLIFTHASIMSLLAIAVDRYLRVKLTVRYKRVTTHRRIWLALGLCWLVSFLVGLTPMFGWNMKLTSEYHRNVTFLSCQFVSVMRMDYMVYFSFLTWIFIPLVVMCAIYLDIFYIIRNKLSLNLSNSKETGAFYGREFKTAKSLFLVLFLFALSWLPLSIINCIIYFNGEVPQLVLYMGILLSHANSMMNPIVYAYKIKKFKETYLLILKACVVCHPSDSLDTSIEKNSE

[10] = target: Histone deacetylase 2 (Homo sapiens, UniProt Q92769); assay: Inhibition of HDAC2 (unknown origin) using trypsin and LGK(Ac)-AMC as substrates incubated for 1 hr and measured by fluorescence assay
[11] = target: Histone deacetylase 3 (Homo sapiens, UniProt O15379); assay: Inhibition of HDAC3 (unknown origin) using trypsin and LGK(Ac)-AMC as substrates incubated for 1 hr and measured by fluorescence assay
[12] = target: T4, Protein deacetylase HDAC6 (Homo sapiens, UniProt Q9UBN7); assay: Inhibition of HDAC6 (unknown origin) using trypsin and LGK(Ac)-AMC as substrates incubated for 1 hr and measured by fluorescence assay
T4 sequence (Q9UBN7 whole entry): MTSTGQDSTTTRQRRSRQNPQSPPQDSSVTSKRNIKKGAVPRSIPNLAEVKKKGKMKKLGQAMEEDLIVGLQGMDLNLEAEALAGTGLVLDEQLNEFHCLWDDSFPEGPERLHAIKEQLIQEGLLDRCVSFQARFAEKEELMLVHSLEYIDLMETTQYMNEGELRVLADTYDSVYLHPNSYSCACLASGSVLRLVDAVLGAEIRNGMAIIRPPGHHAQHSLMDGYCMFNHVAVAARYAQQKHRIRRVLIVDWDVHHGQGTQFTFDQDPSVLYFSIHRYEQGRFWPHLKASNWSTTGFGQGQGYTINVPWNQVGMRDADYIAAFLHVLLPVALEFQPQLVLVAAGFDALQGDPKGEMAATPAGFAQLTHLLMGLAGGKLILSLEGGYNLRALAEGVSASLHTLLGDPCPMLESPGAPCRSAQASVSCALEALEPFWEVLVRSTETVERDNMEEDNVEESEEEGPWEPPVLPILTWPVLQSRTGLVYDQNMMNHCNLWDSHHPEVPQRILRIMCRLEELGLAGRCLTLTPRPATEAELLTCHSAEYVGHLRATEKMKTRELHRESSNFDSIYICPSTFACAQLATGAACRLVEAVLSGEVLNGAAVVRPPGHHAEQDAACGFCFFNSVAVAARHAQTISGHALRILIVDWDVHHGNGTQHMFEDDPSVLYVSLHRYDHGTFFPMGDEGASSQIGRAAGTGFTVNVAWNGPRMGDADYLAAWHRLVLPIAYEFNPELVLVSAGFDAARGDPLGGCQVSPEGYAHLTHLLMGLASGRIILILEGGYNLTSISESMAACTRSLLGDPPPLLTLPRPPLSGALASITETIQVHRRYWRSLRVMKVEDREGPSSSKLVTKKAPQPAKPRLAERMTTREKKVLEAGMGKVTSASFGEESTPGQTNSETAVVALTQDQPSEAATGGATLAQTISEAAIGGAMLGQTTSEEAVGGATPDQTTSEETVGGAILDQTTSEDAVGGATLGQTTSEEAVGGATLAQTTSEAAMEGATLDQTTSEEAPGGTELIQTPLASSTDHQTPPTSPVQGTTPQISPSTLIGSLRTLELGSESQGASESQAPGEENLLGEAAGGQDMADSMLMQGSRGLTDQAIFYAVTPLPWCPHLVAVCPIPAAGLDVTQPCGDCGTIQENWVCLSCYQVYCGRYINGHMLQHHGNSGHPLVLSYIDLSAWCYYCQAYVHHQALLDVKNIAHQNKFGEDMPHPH

[13] = target: T5, Histone deacetylase 8 (Homo sapiens, UniProt Q9BY41); assay: Inhibition of HDAC8 (unknown origin) using trypsin and LGK(Ac)-AMC as substrates incubated for 1 hr and measured by fluorescence assay
T5 sequence (Q9BY41 whole entry): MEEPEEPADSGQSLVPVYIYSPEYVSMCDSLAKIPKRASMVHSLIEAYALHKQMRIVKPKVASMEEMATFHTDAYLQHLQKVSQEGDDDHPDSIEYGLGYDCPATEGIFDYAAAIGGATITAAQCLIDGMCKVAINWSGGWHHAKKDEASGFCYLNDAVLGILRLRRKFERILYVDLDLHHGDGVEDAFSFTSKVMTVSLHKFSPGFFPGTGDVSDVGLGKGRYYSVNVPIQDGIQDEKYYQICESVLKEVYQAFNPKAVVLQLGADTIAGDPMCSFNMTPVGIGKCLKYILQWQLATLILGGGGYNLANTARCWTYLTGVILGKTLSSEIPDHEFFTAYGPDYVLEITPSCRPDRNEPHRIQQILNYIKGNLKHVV

Adenosine receptor A2a, sequence (P29274 whole entry): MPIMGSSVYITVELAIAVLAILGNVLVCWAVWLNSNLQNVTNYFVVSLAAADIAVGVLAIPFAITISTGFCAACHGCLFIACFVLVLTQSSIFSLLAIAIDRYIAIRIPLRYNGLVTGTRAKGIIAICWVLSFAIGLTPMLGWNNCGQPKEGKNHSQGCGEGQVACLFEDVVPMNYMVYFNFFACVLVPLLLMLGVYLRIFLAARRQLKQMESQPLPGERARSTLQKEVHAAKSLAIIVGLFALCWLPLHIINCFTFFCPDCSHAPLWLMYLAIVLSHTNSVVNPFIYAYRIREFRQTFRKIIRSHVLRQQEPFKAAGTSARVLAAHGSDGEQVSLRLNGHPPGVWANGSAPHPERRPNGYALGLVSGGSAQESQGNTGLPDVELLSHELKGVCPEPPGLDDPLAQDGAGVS
Histone deacetylase 1, sequence (Q13547 whole entry): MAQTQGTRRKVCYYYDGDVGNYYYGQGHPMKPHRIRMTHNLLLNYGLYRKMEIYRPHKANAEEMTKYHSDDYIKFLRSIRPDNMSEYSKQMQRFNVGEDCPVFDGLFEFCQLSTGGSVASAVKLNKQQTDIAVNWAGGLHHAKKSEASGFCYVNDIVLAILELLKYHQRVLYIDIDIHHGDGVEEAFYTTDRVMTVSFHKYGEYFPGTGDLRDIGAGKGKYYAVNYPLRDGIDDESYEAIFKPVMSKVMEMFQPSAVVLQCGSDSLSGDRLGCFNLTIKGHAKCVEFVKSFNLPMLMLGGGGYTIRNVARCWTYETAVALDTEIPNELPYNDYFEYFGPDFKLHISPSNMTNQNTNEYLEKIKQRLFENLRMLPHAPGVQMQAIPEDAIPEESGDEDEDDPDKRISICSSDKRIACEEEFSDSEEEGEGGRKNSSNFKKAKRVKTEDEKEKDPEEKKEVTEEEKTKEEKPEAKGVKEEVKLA
Histone deacetylase 3, sequence (O15379 whole entry): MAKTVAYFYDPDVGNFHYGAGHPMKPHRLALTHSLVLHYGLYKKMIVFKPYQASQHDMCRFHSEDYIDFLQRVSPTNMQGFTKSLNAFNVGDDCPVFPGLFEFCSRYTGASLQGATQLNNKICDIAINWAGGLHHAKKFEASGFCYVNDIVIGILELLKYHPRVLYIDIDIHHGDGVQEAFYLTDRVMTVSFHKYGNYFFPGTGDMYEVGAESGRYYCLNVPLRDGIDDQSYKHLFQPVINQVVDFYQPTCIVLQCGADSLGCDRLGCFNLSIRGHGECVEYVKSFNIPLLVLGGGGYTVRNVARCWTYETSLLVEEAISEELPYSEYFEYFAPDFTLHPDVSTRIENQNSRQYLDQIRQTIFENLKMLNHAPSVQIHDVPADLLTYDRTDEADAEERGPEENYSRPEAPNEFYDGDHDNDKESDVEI
Histone deacetylase 2, sequence (Q92769 whole entry): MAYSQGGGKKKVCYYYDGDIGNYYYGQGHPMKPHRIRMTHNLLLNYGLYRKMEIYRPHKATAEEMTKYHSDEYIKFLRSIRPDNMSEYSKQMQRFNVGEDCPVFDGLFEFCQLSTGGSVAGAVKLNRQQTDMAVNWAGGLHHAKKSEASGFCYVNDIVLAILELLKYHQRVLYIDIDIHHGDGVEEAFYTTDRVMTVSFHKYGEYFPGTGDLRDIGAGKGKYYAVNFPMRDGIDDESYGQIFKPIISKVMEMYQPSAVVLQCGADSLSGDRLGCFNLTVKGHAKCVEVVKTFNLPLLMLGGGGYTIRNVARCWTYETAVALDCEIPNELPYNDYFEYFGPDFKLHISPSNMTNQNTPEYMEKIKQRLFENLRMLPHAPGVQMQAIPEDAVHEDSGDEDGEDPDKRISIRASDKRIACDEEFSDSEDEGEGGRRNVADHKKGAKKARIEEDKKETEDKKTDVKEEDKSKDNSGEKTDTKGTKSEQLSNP

Ki [1]: 10.3 nM
IC50 [2]: 18.5 nM
GI50 [4]: 12600 nM
Ki [7]: 106 nM
Ki [8]: 513 nM
Ki [9]: > 10000 nM
IC50 [10]: 16 nM
IC50 [11]: 13.6 nM
IC50 [12]: 2.1 nM
IC50 [13]: 1410 nM
SMILES: Nc1nc(-c2ccco2)c2cnn(Cc3cccc(OCCCCCCC(=O)NO)c3)c2n1
GI50 [3]: 12200 nM
inhibition [5]: Active
inhibition [6]: Active
